15 compounds from ChEMBL document CHEMBL1145381, “Synthesis and antiviral property of allophenylnorstatine-based HIV protease inhibitors incorporating D-cysteine derivatives as P2/P3 moieties” (Bioorg Med Chem Lett, 2007) can be followed below.

Broadly, the inhibition is the change of the read-out against control, counted positive when it falls. Low values mean a weak effect, high ones a strong effect. As a reminder, the IC50 is the concentration at which inhibition is half-maximal. What is called EC50 is the concentration giving half of the maximal effect.

The test system of series [1] is Human immunodeficiency virus. Put plainly: Inhibition of HIV protease at 1 nM.
A short description of series [2]: Inhibition of HIV protease. Also on record: species or system Human immunodeficiency virus.
Series [3] can be described thus: Selectivity index, Ratio of LC50 for MT4 cells to EC50 for HIV1 3B. The class given is functional.
Series [4] can be described thus: Cytotoxicity against MT4 cells by MTT assay. The series is classed as cell-based. The following applies: human, read-out: LC50 (the source's name).
Series [5] concerns Human immunodeficiency virus 1. Put plainly: Antiviral activity against HIV1 3B in MT4 cells by MTT assay. The series is classed as functional, organism-based. The following applies: Human immunodeficiency virus 1, 3B. On the technique in general: Formazan colour is commonly taken as a measure of viable cells.
For series [6], the system named is Human immunodeficiency virus 1. Description: Antiviral activity against ritonavir and nelfinavir-resistant HIV1 NL432. As to conditions: Human immunodeficiency virus 1, NL432. The class given is functional, organism-based.
The subject of series [7] is Human immunodeficiency virus 1. Description: Antiviral activity against ritonavir-resistant HIV1 NL432. The class given is functional, organism-based. The following applies: Human immunodeficiency virus 1, NL432.
Series [8] deals with Human immunodeficiency virus 1. Put plainly: Antiviral activity against nelfinavir-resistant HIV1 NL432. The series is classed as functional, organism-based. As to conditions: Human immunodeficiency virus 1, NL432.
Series [9] concerns Human immunodeficiency virus 1. Description: Antiviral activity against HIV1 NL432. The series is classed as functional, organism-based. As to conditions: Human immunodeficiency virus 1, NL432.

In the case of `Cc1ccccc1CNC(=O)[C@H]1N(C(=O)[C@@H](O)[C@H](Cc2ccccc2)NC(=O)C(CS(=O)(=O)c2cccc3ccccc23)NS(C)(=O)=O)CSC1(C)C` (stereo partly specified), the inhibition in series [1] was determined as 97%. In series [2], this compound gave an IC50 of 0.083 nM.
Take `COc1ccc(CS(=O)(=O)C[C@@H](NC(C)=O)C(=O)N[C@@H](Cc2ccccc2)[C@H](O)C(=O)N2CSC(C)(C)[C@H]2C(=O)NCc2ccccc2C)cc1`: the inhibition in [1] amounted to 59%. In addition, the Selectivity index in [3] was more than 265. The CC50 in series [4] is more than 27000 nM. The compound further registered a 50% effective concentration (EC50) in series [5] of 102 nM.
Turning to `CC(=O)NC(CS(=O)(=O)c1cccc2ccccc12)C(=O)N[C@@H](Cc1ccccc1)[C@H](O)C(=O)N1CSC(C)(C)[C@H]1C(=O)NCc1ccccc1C` (stereo partly specified), the inhibition in series [1] worked out at 97%. In addition, the Selectivity index in series [3] was found to be 400. The CC50 in series [4] came to 16000 nM. Further, half-maximal inhibition in [2] (IC50) was put at 0.09 nM. This compound also had an EC50 in [5] of 40 nM.
In series [1], `CSC[C@H](NC(=O)COc1cccc2cnccc12)C(=O)N[C@@H](Cc1ccccc1)[C@H](O)C(=O)N1CSC[C@H]1C(=O)NC(C)(C)C` gave an inhibition of 40%. Also, the Selectivity index in [3] is more than 1363. Moreover, the CC50 in [4] was more than 30000 nM. Besides, in series [5], the EC50 amounted to 22 nM.
Consider `CC(=O)NC(CSc1cccc2ccccc12)C(=O)N[C@@H](Cc1ccccc1)[C@H](O)C(=O)N1CSC(C)(C)[C@H]1C(=O)NCc1ccccc1C` (stereo partly specified), for which the EC50 is 52 nM in series [6]; 18 nM in series [7]; 6.3 nM in series [8]; 13 nM in [5]; 70 nM in [9]. In series [1], the inhibition is 68%. Also, the Selectivity index in series [3] came out at 471. Besides, in series [4], the CC50 stood at 8000 nM.
Turning to `Cc1cc(C)c(NC(CSc2ccc3ccccc3c2)C(=O)N[C@@H](Cc2ccccc2)[C@H](O)C(=O)N2CSC(C)(C)[C@H]2C(=O)NCc2ccccc2C)c(C)c1` (stereo partly specified), the EC50 in series [6] stood at 23 nM; in series [7] it was 31 nM; in series [8], 0.8 nM; in [5] it was 13 nM; in series [9] it was 17 nM. The same compound showed an inhibition in series [1] of 67%. For the same compound, the Selectivity index in series [3] stood at 469. Moreover, the CC50 in [4] came to 6100 nM.
Turning to `Cc1c(O)cccc1C(=O)N[C@@H](CSc1ccccc1)[C@H](O)CN1C[C@H]2CCCC[C@H]2C[C@H]1C(=O)NC(C)(C)C`, the EC50 in [6] was found to be 67 nM; in series [7], 28 nM; in series [8], 308 nM; in [5] it was 16 nM; in [9], 25 nM. In series [1], this compound showed an inhibition of 29%. Besides, the Selectivity index in [3] is given as 688. For the same compound, the CC50 in series [4] was found to be 11000 nM.
In series [1], `CC(=O)NC(CS(=O)(=O)c1ccc2ccccc2c1)C(=O)N[C@@H](Cc1ccccc1)[C@H](O)C(=O)N1CSC(C)(C)[C@H]1C(=O)NCc1ccccc1C` (stereo partly specified) came in with an inhibition of 96%. Further, the Selectivity index in [3] came out at 571. Further, in series [4], the CC50 was determined as 16000 nM. In addition, the IC50 in series [2] is 0.086 nM. Further, the response in series [5] was half-maximal at 28 nM (EC50).
As for `CC(C)(C)NC(=O)c1ccccc1C[C@H](O)[C@@H](Cc1ccccc1)NC(=O)[C@H](CS(=O)(=O)c1ccc(Cl)cc1)NS(C)(=O)=O`, the IC50 in series [2] came to 0.34 nM.
Take `COc1ccc(CS(=O)(=O)C[C@@H](Nc2c(C)cc(C)cc2C)C(=O)N[C@@H](Cc2ccccc2)[C@H](O)C(=O)N2CSC(C)(C)[C@H]2C(=O)NCc2ccccc2C)cc1`: the inhibition in series [1] is 66%. In addition, in series [3], the Selectivity index was more than 128. In series [4], the CC50 was more than 26000 nM. For the same compound, the EC50 in [5] worked out at 203 nM.
Consider `CC(C)c1nc(CN(C)C(=O)N[C@H](C(=O)N[C@@H](Cc2ccccc2)C[C@H](O)[C@H](Cc2ccccc2)NC(=O)OCc2cncs2)C(C)C)cs1` [RITONAVIR], for which the concentration giving a half-maximal response (EC50) came out at 162 nM in series [6], 220 nM in series [7], 36 nM in series [5] and 80 nM in series [9]. In addition, the inhibition in series [1] worked out at 90%.
`COc1ccc(CSC[C@@H](NC(C)=O)C(=O)N[C@@H](Cc2ccccc2)[C@H](O)C(=O)N2CSC(C)(C)[C@H]2C(=O)NCc2ccccc2C)cc1`: the EC50 in series [6] amounted to 14 nM; in [7], 18 nM; in [8], 2.4 nM; in series [5], 13 nM; in [9], 17 nM. This compound displayed an inhibition in [1] of 87%. The Selectivity index in [3] was 1308. In series [4], the CC50 amounted to 17000 nM. For the same compound, the IC50 in series [2] worked out at 0.18 nM.
On to `Cc1cc(C)c(NC(CSc2cccc3ccccc23)C(=O)N[C@@H](Cc2ccccc2)[C@H](O)C(=O)N2CSC(C)(C)[C@H]2C(=O)NCc2ccccc2C)c(C)c1` (stereo partly specified), for which the EC50 in series [6] worked out at 13 nM; in series [7] it was 17 nM; in series [8], 0.67 nM; in series [5], 6.4 nM; in [9] it was 9.3 nM. Moreover, in series [1], the inhibition came to 74%. The Selectivity index in series [3] stood at 688. In addition, the CC50 in series [4] was found to be 4400 nM.
As for `CC(=O)NC(CSc1ccc2ccccc2c1)C(=O)N[C@@H](Cc1ccccc1)[C@H](O)C(=O)N1CSC(C)(C)[C@H]1C(=O)NCc1ccccc1C` (stereo partly specified), the EC50 in series [6] came to 32 nM; in series [7], 65 nM; in [8], 7.2 nM; in series [5], 18 nM; in series [9] it was 17 nM. In [1], this compound registered an inhibition of 53%. Moreover, the Selectivity index in [3] is on record as 461. Also, in series [4], the CC50 is 8300 nM.
`Cc1ccccc1CNC(=O)[C@H]1N(C(=O)[C@@H](O)[C@H](Cc2ccccc2)NC(=O)C(CS(=O)(=O)c2ccc3ccccc3c2)NS(C)(=O)=O)CSC1(C)C` (stereo partly specified) came in with an inhibition in series [1] of 98%. The same compound showed an IC50 in series [2] of 0.09 nM.
